Results: patent US4503076A, “Vasodilator compound and pharmaceutical compositions therefrom” (Ausonia Farmaceutic s.r.l., priority 1981, dated 1985)
Where two headings read alike, the source gives them in different places.

Experiments:
Solubility = format: physicochemical
renin = assay: Hematic renin in rats with tied abdominal aorta; format: in vivo; settings: 20 and 40 mg/kg oral, after 30 minutes
Procedure: (§1) In a second experiment, the substance AF 544 has been administered to rats which have been treated to cause an increase in blood pressure, specifically by tying the abdominal aorta. The administration has been carried out by the oral route in the dose of 20 and 40 mg/kg respectively. Measurements of diastolic pressure, systolic pressure and average pressure are made after 1, 15, and 30 minutes. After 30 minutes, for each group, determinations are made of the hematic renin and the hematic angiotensin. The dose of 20 mg/kg is found to reduce the diastolic pressure of 10-15% while the systolic pressure and the average pressure remain unchanged. On the other hand, the dose of 40 mg/kg is found to be effective on all three parameters, causing an average reduction of about 25%.

angiotensin = assay: Hematic angiotensin in rats with tied abdominal aorta; format: in vivo; settings: 20 and 40 mg/kg oral, after 30 minutes
Procedure: as §1

[1] = test system: lower limb of rats (vascular zone); assay: Vasodilator activity, perfusion of the lower limb of rats (Foster et al.); settings: for inhibition at 50 µg/mL: read-out: Decrease in pressure, %
Description: (Foster et al., J.Pharmacol.Exp.Ther. 89,256,1947)
This study has been carried out in rats by perfusion of the lower limb while determining the variation of the resistance offered by the vascular zone after the perfusion by means of a suitable pressure transducer.
The vaso-constricting agent used is a solution containing a high content of potassium, together with papaverine, the latter being used for comparison purposes.

[2] = test system: rats having normal blood pressure; assay: Hypotensive activity in rats having normal blood pressure; format: in vivo; settings: for Time of maximum hypotensive effect: i.p., rats with normal blood pressure
Procedure: The product has been administered by the intraperitoneal route to rats having normal blood pressure in the dose of 10 and 25 mg/kg. The systolic pressure of the animals has been measured 1, 4, and 24 hours respectively after the treatment using hydralazine in the dose of 1 mg/kg intraperitoneally for comparison. […] When the substance is administered in the dose of 25 mg/kg, the decrease in the systolic pressure is 2.5 times the decrease caused by hydralazine administered in the dose of 1 mg/kg.

[3] = test system: isolated small intestine (ileum) of guinea pigs; assay: Spasmolytic activity in vitro on the isolated small intestine (ileum) of guinea pigs, barium chloride as agonist; settings: 10^-6 g/cc; for % inhibition: incubation 1 minute, BaCl2 2.10^-6 g/cc
Procedure: The tests are carried out in vitro utilizing the isolated small intestine of guinea pigs. As agonist, there is used barium chloride in the dose of 2.10^-6 g/cc. The substance AF 544 and papaverine, which is a substance having well-known spasmolytic activity, are tested in the same concentration of 10^-6 g/cc.

anaesthesized cats = assay: Effect on the circulation and on breathing of anaesthetized cats; format: in vivo
Procedure: For this test, six cats of both sexes are used. The animals had been brought to a state of anaesthesia by means of urethane. The substance AF 544 is administered by the endovenous route in the dose of 0.1-1 mg/kg. The following parameters have been studied: average arterial pressure, amplitude and respiratory frequency, effect on pressure responses to various agonists, (acetylcholine, adrenaline, occlusion of the carotid artery, and vagal stimulation).

[4] = Acute toxicity (DL50) in mice; settings: mouse, in vivo
Description: The DL50 has been determined in mice by the oral as well as intraperitoneal route.

[5] = test system: rats having genetically high blood pressure; assay: Antihypertensive activity in rats having genetically high blood pressure; format: in vivo; settings: 25 mg/kg orally
Procedure: There are utilized for this test rats having genetically high blood pressure. The rats are treated for three days with AF 544 in the dose of 25 mg/kg orally. After each treatment and specifically after 1, 4, 8 and 24 hours respectively, the systolic pressure of the animals is measured.

[6] = test system: rats treated to cause an increase in blood pressure by tying the abdominal aorta; assay: Antihypertensive activity in rats with tied abdominal aorta, blood pressure; format: in vivo
Procedure: as §1

[7] = perfused rat lower limb, dose 5.10^-5 g/cc, high-potassium vasoconstriction

Compound: CC(=N)Nc1c(Cl)cccc1Cl
- Solubility in water (Solubility; in water): soluble in water

Compound: CC(=N)Nc1c(Cl)cccc1Cl [AF 544, N-(2,6-dichlorophenyl)acetamidine]
- Solubility in common organic solvents (Solubility; by heating, common organic solvents): soluble by heating in common organic solvents
- Activity of renin (renin): increases in proportion to the dose of AF 544
- Quantity of angiotensin (angiotensin): an increase in the quantity of angiotensin occurs, which is inversely proportional to the dose of AF 544
- Vasodilator activity (in words) ([1]; compared with papaverine at equal dose): substantial vasodilator activity, which is only slightly inferior to that of papaverine at equal dose
- Decrease in pressure, mm Hg ± e.s [1, 7]: 60 ± 3.2 mm Hg
- inhibition at 50 µg/mL [1, 7]: 27.5%
- Percentage variation of systolic pressure with respect to the basal values ([2]; 10 mg/kg i.p., 1 hour): -1.5 ± 1.8%
- Percentage variation of systolic pressure with respect to the basal values ([2]; 10 mg/kg i.p., 4 hours): -13.1 ± 6.8%
- Percentage variation of systolic pressure with respect to the basal values ([2]; 25 mg/kg i.p., 1 hour): -6.6 ± 13.4%
- Percentage variation of systolic pressure with respect to the basal values ([2]; 25 mg/kg i.p., 4 hours): -46.2 ± 3.4%
- Percentage variation of systolic pressure with respect to the basal values ([2]; 25 mg/kg i.p., 24 hours): -2.2 ± 2.8%
- Dose dependence of hypotensive activity ([2]; 10 and 25 mg/kg i.p.): depends on the dose
- Decrease in systolic pressure relative to the decrease caused by hydralazine ([2]; AF 544 25 mg/kg i.p. vs hydralazine 1 mg/kg i.p.): 2.5 times
- Time of maximum hypotensive effect [2]: reaches the maximum effect during the fourth hour
- Spasmolytic activity (in words) ([3]; efficacy compared with papaverine in the same concentration): high spasmolytic activity with an efficacy which is statistically analogous to that of papaverine in the same concentration
- % inhibition [3]: 49.8 ± 7.44%
- Effect in % on pressure response to acetylcholine (anaesthesized cats; 0.1 mg/kg i.v.): +5.0%
- Effect in % on pressure response to adrenaline (anaesthesized cats; 0.1 mg/kg i.v.): -25.6%
- Effect in % on pressure response to carotid occlusion (anaesthesized cats; 0.1 mg/kg i.v.): +3.5%
- Effect in % on pressure response to vagal stimulation (anaesthesized cats; 0.1 mg/kg i.v.): +11.5%
- Effect on arterial pressure, % (anaesthesized cats; 0.1 mg/kg i.v.): -13.9%
- Effect on arterial pressure, mm Hg ± e.s (anaesthesized cats; 0.1 mg/kg i.v.): -12.5 mm Hg
- Respiration, amplitude % (anaesthesized cats; 0.1 mg/kg i.v.): +50.9%
- Respiration, frequency % (anaesthesized cats; 0.1 mg/kg i.v.): +31.4%
- Transitory hypotension (anaesthesized cats; 0.1 mg/kg intravenously): 13.9%
- Effect in % on pressure response to acetylcholine (anaesthesized cats; 1 mg/kg i.v.): +4.5%
- Effect in % on pressure response to adrenaline (anaesthesized cats; 1 mg/kg i.v.): +4.0%
- Effect in % on pressure response to carotid occlusion (anaesthesized cats; 1 mg/kg i.v.): +2.5%
- Effect in % on pressure response to vagal stimulation (anaesthesized cats; 1 mg/kg i.v.): +20.4%
- Effect on arterial pressure, % (anaesthesized cats; 1 mg/kg i.v.): -46.0%
- Effect on arterial pressure, mm Hg ± e.s (anaesthesized cats; 1 mg/kg i.v.): -36.7 mm Hg
- Respiration, amplitude % (anaesthesized cats; 1 mg/kg i.v.): +16.1%
- Respiration, frequency % (anaesthesized cats; 1 mg/kg i.v.): -8.5%
- Transitory hypotension (anaesthesized cats; 1 mg/kg intravenously): 46.0%
- Variations of the other parameters observed (in words) (anaesthesized cats; 0.1-1 mg/kg i.v., respiration, responses to agonists): small and statistically they are not significant
- LD50 ([4]; ip): 170 mg/kg
- LD50 ([4]; po, orally): 420 mg/kg
- Time of maximum decrease of pressure [5]: between the fourth and eighth hour
- Percentage variation of (systolic) pressure with respect to the basal values of the first day ([5]; day 1, 1 hour): -5%
- Percentage variation of (systolic) pressure with respect to the basal values of the first day ([5]; day 1, 4 hours): -20%
- Percentage variation of (systolic) pressure with respect to the basal values of the first day ([5]; day 1, 8 hours): -18%
- Percentage variation of (systolic) pressure with respect to the basal values of the first day ([5]; day 1, 24 hours): -19%
- Percentage variation of (systolic) pressure with respect to the basal values of the first day ([5]; day 2, 1 hour): -26%
- Percentage variation of (systolic) pressure with respect to the basal values of the first day ([5]; day 2, 4 hours): -20%
- Percentage variation of (systolic) pressure with respect to the basal values of the first day ([5]; day 2, 8 hours): -27%
- Percentage variation of (systolic) pressure with respect to the basal values of the first day ([5]; day 2, 24 hours): -28%
- Percentage variation of (systolic) pressure with respect to the basal values of the first day ([5]; day 3, 1 hour): -22%
- Percentage variation of (systolic) pressure with respect to the basal values of the first day ([5]; day 3, 4 hours): -11%
- Percentage variation of (systolic) pressure with respect to the basal values of the first day ([5]; day 3, 8 hours): -15%
- Percentage variation of (systolic) pressure with respect to the basal values of the first day ([5]; day 3, 24 hours): -12%
- Decrease of pressure at the twenty-fourth hour (in words) ([5]; relative to the maximum at 4-8 hours): remaining about the same during the twenty-fourth hour
- Effect on average pressure ([6]; 20 mg/kg oral): unchanged
- Effect on systolic pressure ([6]; 20 mg/kg oral): unchanged
- Reduction of diastolic pressure ([6]; 20 mg/kg oral): 10-15%
- Average reduction of all three parameters (diastolic, systolic and average pressure) ([6]; 40 mg/kg oral): about 25%

Compound: NNc1nncc2ccccc12 [HYDRALAZINE, hydralazine, reference compound]
- Percentage variation of systolic pressure with respect to the basal values ([2]; 1 mg/kg i.p., 1 hour): +21.0 ± 4.9%
- Percentage variation of systolic pressure with respect to the basal values ([2]; 1 mg/kg i.p., 4 hours): -18.0 ± 3.1%
- Percentage variation of systolic pressure with respect to the basal values ([2]; 1 mg/kg i.p., 24 hours): -7.5 ± 7.8%
- Time of maximum hypotensive effect [2]: reaches the maximum even during the first hour

Compound: COc1ccc(Cc2nccc3cc(OC)c(OC)cc23)cc1OC [PAPAVERINE, papaverine, reference compound]
- inhibition at 50 µg/mL ([1]; Rattus norvegicus): 39.3%
- Decrease in pressure, mm Hg ± e.s [1, 7]: 82 ± 13.6 mm Hg
- % inhibition [3]: 73.7 ± 8.09%
